Laboratory results published in patent publication US6586402B1, “LH-RH peptide analogues, their uses and pharmaceutical compositions containing them” (Laboratoire Theramex, priority 1997, dated 2003).
“Also recorded” adds a separate entry of the source. Square brackets hold non-standard residues; d marks the D form. Peptide text beside a SMILES is read from it. 1Nal = N[C@@H](Cc1cccc2ccccc12)C(=O)O; 2Nal = N[C@@H](Cc1ccc2ccccc2c1)C(=O)O; Bta = N[C@@H](Cc1csc2ccccc12)C(=O)O; tBuAla = CC(C)(C)C[C@H](N)C(=O)O; d3Pal = N[C@H](Cc1cccnc1)C(=O)O; d4Pal = N[C@H](Cc1ccncc1)C(=O)O; pGlu = O=C1CC[C@@H](C(=O)O)N1

Assays:
[1] = target: LH-RH receptors (membrane fractions of pituitaries from female Sprague Dawley rats) (rat (female Sprague Dawley)) (UniProt P30969); assay: competition with [125I]-buserelin, rat pituitary membranes; Ki by Cheng-Prusoff
LH-RH receptors = target: T1, LH-RH receptors (Rattus norvegicus, UniProt P30969); assay: Stimulation of testosterone secretion in adult male rats after subcutaneous injection (agonist activity in vivo); design: exert an agonist activity upon the LH-RH receptors in vivo; from tissue; host or cells: whole animal, adult male Sprague-Dawley rats; species or system Sprague-Dawley rats; conditions: for agonistic potency in words: comment on Tables 2 and 3; for Total plasma testosterone: 10 ng/kg subcutaneous in PBS, blood two hours later, male Sprague-Dawley rats
T1 sequence (P30969 1-327): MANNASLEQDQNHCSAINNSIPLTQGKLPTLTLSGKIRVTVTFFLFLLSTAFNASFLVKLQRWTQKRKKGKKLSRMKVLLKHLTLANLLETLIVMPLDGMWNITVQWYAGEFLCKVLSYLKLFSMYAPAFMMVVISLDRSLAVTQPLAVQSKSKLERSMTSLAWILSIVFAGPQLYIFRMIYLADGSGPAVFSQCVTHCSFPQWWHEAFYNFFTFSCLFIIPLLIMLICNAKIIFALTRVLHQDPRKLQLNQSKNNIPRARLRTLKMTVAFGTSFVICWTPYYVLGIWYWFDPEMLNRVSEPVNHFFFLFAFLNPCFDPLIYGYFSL
Protocol: The peptides according to the general formula (IIa) exert an agonist activity upon the LH-RH receptors in vivo, resulting in the stimulation of LH secretion by the pituitary, which, in males, stimulates the secretion of testosterone by the testis.
Two hours later, blood samples were drawn for total plasma testosterone determination by direct radioimmunoassay (Immunotech).
At this intermediate dose of 10 ng/kg, several examples with Npg^7 or Ada^7 in place of Leu^7 according to the invention were screened for agonistic activity (Tables 2 and 3). When available from Bachem (France) or Sigma (France), the corresponding standard agonist with Leu^7 was tested for comparison.

Row | Molecule | agonistic potency in words (LH-RH receptors; 10 ng/kg s.c.) | Total plasma testosterone (LH-RH receptors; Table 2, vehicle 2.7 ± 0.3) [nmol/L] | other results
1 | Goserelin (peptide) |  |  | pKi [1]: 8.58 -log Ki
2 | CC(C)(C)C[C@H](NC(=O)CNC(=O)[C@H](Cc1ccc(O)cc1)NC(=O)[C@H](CO)NC(=O)[C@H](Cc1c[nH]c2ccccc12)NC(=O)[C@H](Cc1c[nH]cn1)NC(=O)[C@@H]1CCC(=O)N1)C(=O)N[C@@H](CCCNC(=N)N)C(=O)N1CCC[C@H]1C(=O)NCC(N)=O [Example 1, pGlu-His-Trp-Ser-Tyr-Gly-Npg-Arg-Pro-Gly-NH2] |  |  | activity in stimulating testosterone secretion relative to LH-RH (LH-RH receptors; FIG. 1, various doses s.c., 8 animals per point): a little more than twice as active as LH-RH
3 | AcD-Nal-D-pClPhe-D-Pal-Ser-NicLys-D-NicLys-Npg-IprLys-Pro-D-Ala-NH2 (peptide) |  |  | pKi [1]: 9.23 -log Ki
4 | CC(C)C[C@@H](NC(=O)[C@H](Cc1ccc(O)cc1)NC(=O)[C@H](CO)NC(=O)[C@H](Cc1c[nH]c2ccccc12)NC(=O)[C@H](Cc1c[nH]cn1)NC(=O)[C@@H]1CCC(=O)N1)C(=O)N[C@@H](CC(C)(C)C)C(=O)N[C@@H](CCCNC(=N)N)C(=O)N1CCC[C@H]1C(=O)NCC(N)=O [Example 5, pGlu-His-Trp-Ser-Tyr-D-Leu-Npg-Arg-Pro-Gly-NH2] ([pGlu]HWSY[dL][tBuAla]RPG-NH2) | range of potency similar to that of leuprorelin or tryptorelin | 21.2 ± 6.6 | 
5 | CCNC(=O)[C@@H]1CCCN1C(=O)[C@H](CCCNC(=N)N)NC(=O)[C@H](CC(C)C)NC(=O)[C@@H](CC(C)C)NC(=O)[C@H](Cc1ccc(O)cc1)NC(=O)[C@H](CO)NC(=O)[C@H](Cc1c[nH]c2ccccc12)NC(=O)[C@H](Cc1c[nH]cn1)NC(=O)[C@@H]1CCC(=O)N1 [Leuprorelin, reference compound] |  | 33.5 ± 3.5 | 
6 | CC(C)(C)C[C@H](NC(=O)[C@@H](Cc1c[nH]c2ccccc12)NC(=O)[C@H](Cc1ccc(O)cc1)NC(=O)[C@H](CO)NC(=O)[C@H](Cc1c[nH]c2ccccc12)NC(=O)[C@H](Cc1c[nH]cn1)NC(=O)[C@@H]1CCC(=O)N1)C(=O)N[C@@H](CCCNC(=N)N)C(=O)N1CCC[C@H]1C(=O)NCC(N)=O [Example 11, pGlu-His-Trp-Ser-Tyr-D-Trp-Npg-Arg-Pro-Gly-NH2] ([pGlu]HWSY[dW][tBuAla]RPG-NH2) | Npg^7 led to more potent agonists than Ada^7 | 30.8 ± 3.5 | activity in stimulating testosterone secretion relative to the Leu^7 counterpart (LH-RH receptors; 10 ng/kg s.c.): a little more than twice as active
7 | CCNC(=O)[C@@H]1CCCN1C(=O)[C@H](CCCN=C(N)N)NC(=O)[C@H](CC(C)C)NC(=O)[C@@H](Cc1c[nH]c2ccccc12)NC(=O)[C@H](Cc1ccc(O)cc1)NC(=O)[C@H](CO)NC(=O)[C@H](Cc1c[nH]c2ccccc12)NC(=O)[C@H](Cc1cnc[nH]1)NC(=O)[C@@H]1CCC(=O)N1 [Deslorelin, reference compound] |  | 11.8 ± 3.5 | 
8 | CC(C)C[C@H](NC(=O)[C@@H](C)NC(=O)[C@H](Cc1ccc(O)cc1)NC(=O)[C@H](CO)NC(=O)[C@H](Cc1c[nH]c2ccccc12)NC(=O)[C@H](Cc1c[nH]cn1)NC(=O)[C@@H]1CCC(=O)N1)C(=O)N[C@@H](CCCNC(=N)N)C(=O)N1CCC[C@H]1C(=O)NCC(N)=O [[D-Ala^6]-LH-RH, reference compound] |  | 6.4 ± 1.9 | 
9 | CC(C)(C)C[C@H](NC(=O)[C@@H](Cc1ccncc1)NC(=O)[C@H](Cc1ccc(O)cc1)NC(=O)[C@H](CO)NC(=O)[C@H](Cc1c[nH]c2ccccc12)NC(=O)[C@H](Cc1c[nH]cn1)NC(=O)[C@@H]1CCC(=O)N1)C(=O)N[C@@H](CCCNC(=N)N)C(=O)N1CCC[C@H]1C(=O)NCC(N)=O [Example 21, pGlu-His-Trp-Ser-Tyr-D-4Pal-Npg-Arg-Pro-Gly-NH2] ([pGlu]HWSY[d4Pal][tBuAla]RPG-NH2) | range of potency similar to that of leuprorelin or tryptorelin |  | Total plasma testosterone (LH-RH receptors; Table 3, vehicle 4.3 ± 1.2): 32.4 ± 7.0 nmol/L
10 | CCNC(=O)[C@@H]1CCCN1C(=O)[C@H](CCCNC(=N)N)NC(=O)[C@H](CC(C)(C)C)NC(=O)[C@@H](CC(C)C)NC(=O)[C@H](Cc1ccc(O)cc1)NC(=O)[C@H](CO)NC(=O)[C@H](Cc1cccc2ccccc12)NC(=O)[C@H](Cc1c[nH]cn1)NC(=O)[C@@H]1CCC(=O)N1 [Example 24, pGlu-His-1Nal-Ser-Tyr-D-Leu-Npg-Arg-Pro-NEt] ([pGlu]H[1Nal]SY[dL][tBuAla]RP-NHEt) |  |  | Total plasma testosterone (LH-RH receptors; Table 3, vehicle 4.3 ± 1.2): 14.3 ± 4.3 nmol/L
11 | AcD-Nal-D-pClPhe-D-Pal-Ser-Tyr-D-HCit-Npg-IprLys-Pro-D-Ala-NH2 (peptide) |  |  | pKi [1]: 10.1 -log Ki
12 | CCNC(=O)[C@@H]1CCCN1C(=O)[C@H](CCCNC(=N)N)NC(=O)[C@H](CC(C)C)NC(=O)[C@@H](C)NC(=O)[C@H](Cc1ccc(O)cc1)NC(=O)[C@H](CO)NC(=O)[C@H](Cc1c[nH]c2ccccc12)NC(=O)[C@H](Cc1c[nH]cn1)NC(=O)[C@@H]1CCC(=O)N1 [[D-Ala^6, Pro^9NEt]-LH-RH, reference compound] |  | 30.6 ± 7.2 | 
13 | pGlu-His-Trp-Ser-Tyr-D-Phe-Npg-Arg-Pro-NEt (peptide) |  |  | pKi [1]: 9.64 -log Ki
14 | pGlu-His-Trp-Ser-Tyr-D-Ala-Npg-Arg-Pro-NEt (peptide) |  |  | pKi [1]: 10 -log Ki
15 | CC(C)(C)C[C@H](NC(=O)[C@@H](Cc1cccnc1)NC(=O)[C@H](Cc1ccc(O)cc1)NC(=O)[C@H](CO)NC(=O)[C@H](Cc1c[nH]c2ccccc12)NC(=O)[C@H](Cc1c[nH]cn1)NC(=O)[C@@H]1CCC(=O)N1)C(=O)N[C@@H](CCCNC(=N)N)C(=O)N1CCC[C@H]1C(=O)NCC(N)=O [Example 20, pGlu-His-Trp-Ser-Tyr-D-Pal-Npg-Arg-Pro-Gly-NH2] ([pGlu]HWSY[d3Pal][tBuAla]RPG-NH2) | range of potency similar to that of leuprorelin or tryptorelin |  | Total plasma testosterone (LH-RH receptors; Table 3, vehicle 4.3 ± 1.2): 24.9 ± 5.0 nmol/L
16 | CCNC(=O)[C@@H]1CCCN1C(=O)[C@H](CCCNC(=N)N)NC(=O)[C@H](CC(C)(C)C)N(C)C(=O)[C@@H](CC(C)C)NC(=O)[C@H](Cc1ccc(O)cc1)NC(=O)[C@H](CO)NC(=O)[C@H](Cc1c[nH]c2ccccc12)NC(=O)[C@H](Cc1c[nH]cn1)NC(=O)[C@@H]1CCC(=O)N1 [Example 23, pGlu-His-Trp-Ser-Tyr-D-Leu-MeNpg-Arg-Pro-NEt] | very strong agonistic activity; also recorded: more potent LH-RH agonists than current therapeutic LH-RH analogues |  | Total plasma testosterone (LH-RH receptors; Table 3, vehicle 4.3 ± 1.2): 49.4 ± 4.6 nmol/L
17 | pGlu-His-Trp-Ser-Tyr-D-Trp-Ada-Arg-Pro-Gly-NH2 [Example 30] |  | 24.8 ± 4.1 | 
18 | CC(C)C[C@H](NC(=O)[C@@H](Cc1c[nH]c2ccccc12)NC(=O)[C@H](Cc1ccc(O)cc1)NC(=O)[C@H](CO)NC(=O)[C@H](Cc1c[nH]c2ccccc12)NC(=O)[C@H](Cc1c[nH]cn1)NC(=O)[C@@H]1CCC(=O)N1)C(=O)N[C@@H](CCCNC(=N)N)C(=O)N1CCC[C@H]1C(=O)NCC(N)=O [Tryptorelin, reference compound] |  | 20.3 ± 2.5 | 
19 | pGlu-His-Trp-Ser-Tyr-D-Phe-Ada-Arg-Pro-NEt [Example 27] | the Ada^7 replacement was more favorable than Npg^7 | 28.0 ± 4.1 | 
20 | CCNC(=O)[C@@H]1CCCN1C(=O)[C@H](CCCNC(=N)N)NC(=O)[C@H](CC(C)(C)C)NC(=O)[C@@H](CC(C)C)NC(=O)[C@H](Cc1ccc(O)cc1)NC(=O)[C@H](CO)NC(=O)[C@H](Cc1ccc2ccccc2c1)NC(=O)[C@H](Cc1c[nH]cn1)NC(=O)[C@@H]1CCC(=O)N1 [Example 25, pGlu-His-2Nal-Ser-Tyr-D-Leu-Npg-Arg-Pro-NEt] ([pGlu]H[2Nal]SY[dL][tBuAla]RP-NHEt) | range of potency similar to that of leuprorelin or tryptorelin |  | Total plasma testosterone (LH-RH receptors; Table 3, vehicle 4.3 ± 1.2): 27.3 ± 6.9 nmol/L
21 | CCNC(=O)[C@@H]1CCCN1C(=O)[C@H](CCCNC(=N)N)NC(=O)[C@H](CC(C)(C)C)NC(=O)[C@@H](CC(C)C)NC(=O)[C@H](Cc1ccc(O)cc1)NC(=O)[C@H](CO)NC(=O)[C@H](Cc1csc2ccccc12)NC(=O)[C@H](Cc1c[nH]cn1)NC(=O)[C@@H]1CCC(=O)N1 [Example 26, pGlu-His-Bal-Ser-Tyr-D-Leu-Npg-Arg-Pro-NEt] ([pGlu]H[Bta]SY[dL][tBuAla]RP-NHEt) |  |  | Total plasma testosterone (LH-RH receptors; Table 3, vehicle 4.3 ± 1.2): 12.2 ± 2.7 nmol/L
22 | pGlu-His-Trp-Ser-Tyr-D-Leu-Ada-Arg-Pro-NEt [Example 29] |  | 36.2 ± 4.5 | 
23 | pGlu-His-Trp-Ser-Tyr-D-Ala-Ada-Arg-Pro-NEt [Example 28] | the Ada^7 replacement was more favorable than Npg^7; also recorded: more potent LH-RH agonists than current therapeutic LH-RH analogues | 44.9 ± 6.0 | 
24 | CCNC(=O)[C@@H]1CCCN1C(=O)[C@H](CCCNC(=N)N)NC(=O)[C@H](CC(C)C)NC(=O)[C@@H](Cc1ccccc1)NC(=O)[C@H](Cc1ccc(O)cc1)NC(=O)[C@H](CO)NC(=O)[C@H](Cc1c[nH]c2ccccc12)NC(=O)[C@H](Cc1c[nH]cn1)NC(=O)[C@@H]1CCC(=O)N1 [[D-Phe^6, Pro^9NEt]-LH-RH, reference compound] |  | 16.7 ± 4.3 | 
